{
  "source": "patent US7700284B2",
  "about": "“Reporter transcription unit populations and kits comprising same” (Attagene, Inc., priority 2004, dated 2010)",
  "key": {"metal-sensitive MTΔ RTU": {"tested_on": "metal-sensitive MTΔ RTU", "assay": "Multiplexed RTU reporter profiling in transfected HEK293 cells, MTΔ RTU", "details": "HEK293, 100 μM, 6 hrs stimulation, 11-RTU library"}, "NF-κB RTU": {"tested_on": "NF-κB RTU", "assay": "Multiplexed RTU reporter profiling in transfected HEK293 cells, NF-κB RTU", "details": "HEK293, 100 u per ml, 6 hrs stimulation, 11-RTU library"}, "[1]": {"tested_on": "Elk-1 TAD RTU (ERK1/2 pathway)", "assay": "MAPK pathway TAD RTU profiling in HEK293 cells, Elk-1 TAD RTU", "format": "cell-based, human", "details": "HEK293, PMA 10 uM, 6 hours induction, versus control cells"}, "ATF2 TAD RTU": {"tested_on": "ATF2 TAD RTU", "assay": "MAPK pathway TAD RTU profiling in HEK293 cells, ATF2 TAD RTU", "format": "cell-based, human", "details": "HEK293, PMA 10 uM, 6 hours induction"}, "c-Jun TAD RTU": {"tested_on": "c-Jun TAD RTU", "assay": "MAPK pathway TAD RTU profiling in HEK293 cells, c-Jun TAD RTU", "format": "cell-based, human", "details": "HEK293, PMA 10 uM, 6 hours induction"}, "[2]": {"biological_target": "GR RTU (Gal4DBD-GR fusion) (Homo sapiens, UniProt P04150)", "sequence (P04150 486-777)": "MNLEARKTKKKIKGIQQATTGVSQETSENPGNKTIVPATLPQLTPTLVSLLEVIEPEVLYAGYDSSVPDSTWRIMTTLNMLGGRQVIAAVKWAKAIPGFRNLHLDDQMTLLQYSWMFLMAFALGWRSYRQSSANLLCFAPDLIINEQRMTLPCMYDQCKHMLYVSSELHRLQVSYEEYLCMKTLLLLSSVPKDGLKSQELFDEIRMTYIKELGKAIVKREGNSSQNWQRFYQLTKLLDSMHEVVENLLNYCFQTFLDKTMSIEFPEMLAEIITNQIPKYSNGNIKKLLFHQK", "details": "HEK293, 10 uM, 6 hrs induction, versus non-induced cells"}},
  "data": [
    {"molecule": "[Cl-].[Cl-].[Zn+2]", "note": "[ZnCl2]", "values": [
      {"measurement": "induction of MTΔ RTU (stimulated versus nonstimulated cells)", "setting": "metal-sensitive MTΔ RTU", "value": "induced"}
    ]},
    {"molecule": "IL-1β: Human recombinant IL-1β purchased from Roche; NF-κB inducer", "values": [
      {"measurement": "activation of NF-κB RTU (stimulated versus nonstimulated cells)", "setting": "NF-κB RTU", "value": "specifically activated"}
    ]},
    {"molecule": "CCCCCCCCCCCCCC(=O)O[C@@H]1[C@@H](C)[C@@]2(O)[C@@H](C=C(CO)C[C@@]3(O)C(=O)C(C)=C[C@@H]23)[C@@H]2C(C)(C)[C@]12OC(C)=O", "note": "[PMA, 4α-Phorbol 12-myristate 13-acetate]", "values": [
      {"measurement": "activation of the Elk-1 TAD RTU", "setting": "[1]", "value": "~20", "unit": "fold"},
      {"measurement": "activity of ATF2 TAD RTU", "setting": "ATF2 TAD RTU", "value": "remained unchanged"},
      {"measurement": "activity of c-Jun TAD RTU", "setting": "c-Jun TAD RTU", "value": "remained unchanged"}
    ]},
    {"molecule": "dexamethasone [Dexamethazone]", "values": [
      {"measurement": "increase of reporter peak produced by GR RTU", "setting": "[2]", "value": 10, "unit": "fold"}
    ]}
  ]
}
